# Measurements as given in patent US20190304569A1, “DRUG TARGETING OF HUMAN INDOLEAMINE 2,3-DIOXYGENASE” (Albert Einstein College of Medicine, priority 2016, published 2019).
# Molecular target: human indoleamine 2,3-dioxygenase (hIDO) (Homo sapiens, UniProt P14902)
# Assay: hIDO enzyme activity in solution studies (binding to the Si site)
# Type: biochemical
# Conditions: for effect of binding to the Si site on the enzyme activity: solution data
# From the text: The existence of the Si site in hIDO was first proposed by us in 2009 based on solution studies (8). […] It is notable that for decades MitoC has been widely used as a chemotherapy drug for several types of cancer (9).
# Sequence of human indoleamine 2,3-dioxygenase (hIDO) (P14902 whole entry): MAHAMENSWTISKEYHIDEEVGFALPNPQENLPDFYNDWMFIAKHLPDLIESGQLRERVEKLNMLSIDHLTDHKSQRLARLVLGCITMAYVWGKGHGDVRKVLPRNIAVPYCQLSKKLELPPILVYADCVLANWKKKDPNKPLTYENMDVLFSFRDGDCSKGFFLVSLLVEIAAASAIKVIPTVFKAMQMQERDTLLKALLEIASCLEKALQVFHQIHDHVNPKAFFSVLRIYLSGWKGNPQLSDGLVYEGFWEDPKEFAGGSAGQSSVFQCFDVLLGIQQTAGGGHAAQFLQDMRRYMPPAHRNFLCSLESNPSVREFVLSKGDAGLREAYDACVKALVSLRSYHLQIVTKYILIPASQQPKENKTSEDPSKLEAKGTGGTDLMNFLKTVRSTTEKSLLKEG
Structure (SMILES),effect of binding to the Si site on the enzyme activity,Ki (uncompetitive inhibition of hIDO by binding to the Si site)
"CO[C@@]12[C@H](COC(N)=O)C3=C(C(=O)C(C)=C(N)C3=O)N1C[C@@H]1N[C@@H]12 [MitoC, Mitomycin C]",inhibiting the enzyme activity,25 µM
"N[C@@H](Cc1c[nH]c2ccccc12)C(=O)O [Trp, tryptophan]",inhibits the enzyme activity,
